{"source": "patent US20240166626A1", "about": "“Compounds and Methods for Preventing, Treating, or Ameliorating Airway Disease” (THOMAS JEFFERSON UNIVERSITY, priority 2021, published 2024)", "biological_target": "GRK5 (Homo sapiens, UniProt P34947)", "sequence (P34947 whole entry, species assumed)": "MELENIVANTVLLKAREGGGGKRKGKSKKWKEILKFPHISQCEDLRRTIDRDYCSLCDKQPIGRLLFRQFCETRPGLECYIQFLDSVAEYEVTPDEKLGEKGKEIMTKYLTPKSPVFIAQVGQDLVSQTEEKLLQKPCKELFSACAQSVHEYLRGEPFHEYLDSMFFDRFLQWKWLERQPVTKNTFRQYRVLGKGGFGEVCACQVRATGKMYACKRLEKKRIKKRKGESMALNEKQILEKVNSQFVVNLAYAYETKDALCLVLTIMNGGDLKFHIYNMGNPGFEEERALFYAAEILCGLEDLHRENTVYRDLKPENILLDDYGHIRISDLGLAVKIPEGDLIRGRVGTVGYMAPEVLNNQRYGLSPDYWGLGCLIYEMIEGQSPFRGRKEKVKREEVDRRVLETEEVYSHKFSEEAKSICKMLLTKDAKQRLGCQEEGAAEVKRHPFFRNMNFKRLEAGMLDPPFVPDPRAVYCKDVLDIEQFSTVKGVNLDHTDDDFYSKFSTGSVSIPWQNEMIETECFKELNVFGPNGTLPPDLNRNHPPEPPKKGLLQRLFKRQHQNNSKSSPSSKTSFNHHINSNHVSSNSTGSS", "assay": "In vitro tubulin phosphorylation assay with purified GRK5", "format": "biochemical", "conditions": "10 μM DFPQ, FIG. 3C", "method": "FIGS. 3A-3D: DFPQ inhibits GRK-mediated phosphorylation of the β2AR. FIG. 3A: Representative time course of agonist promoted phosphorylation of the β2AR. […] Cells were lysed and the FLAG-β2AR was immunoprecipitated. Phosphorylation at […] and 356 was analyzed by western blot using a pSer^355/356 antibody while total β2AR was measured using a β2AR C-terminal antibody. The western blot is representative of at least 3 experiments and is quantified in FIG. 3B. FIG. 3C: […] FIG. 3D: Bar graphs represent pixel densitometry of radiolabeled tubulin at the 60 min timepoint from 4 experiments. […]® ADRB2 cells (DiscoveRx) were maintained with the AssayCompleteTM Cell Culture kit (DiscoveRx catalog #92-[…]). […] Cells were read every three minutes for 18 minutes on a PolarStar Optima plate reader (BMG) to establish peak signal. […] Luminescence was determined at room temperature (23-25° C.) on a PolarStar Optima plate reader (BMG). […] Relative assay bias was calculated from the ratio of normalized cAMP and arrestin recruitment responses. […] BRET was measured using a Tecan Infinite F500 microplate reader. […] Bound [35 S]GTPγS was collected by rapid filtration on GF/B filters, washed 4 times with 4 ml of cold GTPγS wash buffer and analyzed by liquid scintillation counting. […] Immunoprecipitated proteins were separated by SDS-PAGE and analyzed by western blot using a β2AR C-terminal tail or phospho-specific antibody. […]", "data": [{"smiles": "Fc1ccc(Nc2nc(NC3CCCCC3)c3ccccc3n2)cc1F", "note": "[DFPQ, N^4-cyclohexyl-N^2-(3,4-difluorophenyl)quinazoline-2,4-diamine]", "values": [{"measurement": "phosphorylation of tubulin by GRK5", "setting": "60-minute time course", "value": "unaffected"}, {"measurement": "GRK5 autophosphorylation", "value": "lack of an effect"}]}]}
